Test results reported in publication PMC9354408, “How to Achieve Sufficient Endogenous Insulin Suppression in Euglycemic Clamps Assessing the Pharmacokinetics and Pharmacodynamics of Long-Acting Insulin Preparations Employing Healthy Volunteers” (Frontiers in Pharmacology, 2022).

Legend:
Format in all cases: in vivo, healthy Chinese men and women
[1] = test system: endogenous insulin secretion; test: Serum C-peptide during clamp (endogenous insulin suppression, direct chemiluminescence); settings: arithmetic mean ± SD; for Mean postdose C-peptide: after 0.5 IU/kg s.c. IGlar; for C-peptide reduction: postdose versus baseline
Protocol: (§1) All enrolled subjects underwent a euglycemic glucose clamp lasting for up to 24 h after a 0.5-IU/kg IGlar injection. All the participants were restrained from strenuous exercise, smoking, alcohol, or caffeinated drinks. Since a C-peptide suppression of more than 50% is widely recognized as sufficient endogenous insulin suppression, the subjects fell into two groups based on the ratio of C-peptide reduction from baseline (group A: C-peptide reduction <50%; group B: C-peptide reduction ≥50%). The data were collected from a clinical trial (NCT03555305) ([Liu et al., 2021]), which was conducted to evaluate the pharmacokinetic and pharmacodynamic equivalence of an IGlar biosimilar (LY2963016) manufactured by Eli Lilly to Lantus manufactured by Sanofi.
(§2) A 6-ml blood sample for analysis of C-peptide and total insulin levels were collected before drug administration (0.5 and 0 h before dosing) and every 0.5–3 h throughout the clamp as described before ([Liu et al., 2021]). The whole blood sample was drawn into a serum tube and gently mixed by inversion (>5 times). Then the sample was required to clot for 30–60 min at room temperature. The tube was centrifuged at 1,500–2000g for 15–20 min to separate serum. The serum was transferred without red blood cells contained, and frozen at -70 °C until shipment for analysis. The concentration of total insulin was determined by a validated radioimmunoassay method ([Kuerzel et al., 2003]; [Shen et al., 2019]) with a quantification range of 50–2000 pmol/L at WuXi AppTec Co., Ltd. in Shanghai, China. The exogenous IGlar level was calculated by subtracting the endogenous insulin based on C-peptide using Owens’s method ([Owens, 1986]). The C-peptide concentration was analyzed by a direct chemiluminescent technology in Covance Laboratory (Shanghai, China) with a quantification range of 0.07–352 ng/ml.
(§3) If a measured value of total insulin or C-peptide was below the lower limit of quantification, it would be included in statistics as half of the limit. A calculated value of IGlar below zero after C-peptide correction would be excluded from the PK statistics. The primary PK parameters included the area under the curve (AUC) of IGlar from time 0–24 h (AUCIGlar, 0–24 h) and the maximum IGlar (IGlarmax) corrected by C-peptide. Other PK parameters included AUC of IGlar from 0 to 12 h (AUCIGlar, 0–12 h) and time to IGlarmax (tIGlarmax).

[2] = Manual euglycemic glucose clamp, glucose infusion rate (pharmacodynamics); settings: for AUCGIR,0-24h / GIRmax / tGIRmax: 0.5 IU/kg s.c., arithmetic mean ± SD; for AUCGIR,0-12h: single 0.5 IU/kg s.c. IGlar (LY2963016 or Lantus), clamp up to 24 h, target BG 0.28 mmol/L below baseline, median (interquartile range); for GIRmax after correction / AUCGIR, 0–24 h after correction: corrected using the corresponding exogenous IGlar parameter as a covariant; for AUCGIR, 0–24 h after correction: first mention
Protocol: as §1
At the dosing visit, an overnight fast of at least 8 h must be guaranteed prior to IGlar administration. Two catheters were placed into the antecubital vein and the hand vein, respectively, for 20% dextrose infusing and blood sampling correspondingly. The baseline of BG was defined as the mean of three BG measurements at 30, 20, and 10 min prior to the IGlar administration. A single dose (0.5 IU/kg) of Lantus or LY2963016 was subcutaneously injected into a lifted abdominal skinfold. A 0.1-ml blood sample was collected from the hand vein which was continuously heated in a warm blanket (55 ± 5 °C) at an interval of 10–20 min for the analysis of BG levels. A variable GIR was frequently adjusted and timely recorded to maintain the BG around 0.28 mmol/L below the baseline and represent the pharmacodynamic activity of IGlar, respectively.
The BG levels were immediately determined in whole blood at the bedside by a glucose analyzer (Biosen C_line, EKF Diagnostics, Barleben, Germany) with the glucose oxidase method. The measuring range of this method was 0.5–50 mmol/L with a high precision of 1.5%. The clamp would end if no exogenous glucose infusion was required for at least 0.5 h.
Individual GIR values were smoothed by a locally weighted scatterplot smoothing technique. The maximum GIR (GIRmax) and the total amount of glucose infused throughout the clamp (AUCGIR, 0–24 h) were defined as primary PD parameters. Secondary PD parameters included time to GIRmax (tGIRmax) and AUC of GIR from 0 to 12 h (AUCGIR, 0–12 h).

[3] = Serum total insulin during clamp (radioimmunoassay); parameters: AUCTotal insulin,0-12h / AUCTotal insulin,0-24h: unit not given here; settings: 0.5 IU/kg s.c., arithmetic mean ± SD; for AUCTotal insulin,0-12h / AUCTotal insulin,0-24h: serum, before C-peptide correction
Protocol: as §1, §2, §3

[4] = Pharmacokinetics of exogenous IGlar (total insulin radioimmunoassay, C-peptide corrected by Owens's method); settings: 0.5 IU/kg s.c., arithmetic mean ± SD; for AUCIGlar,0-12h / AUCIGlar,0-24h / IGlarmax: serum, C-peptide corrected
Protocol: as §1, §2, §3

[5] = group A (C-peptide reduction <50%), N = 52
[6] = group B (C-peptide reduction >=50%), N = 26

For insulin glargine [IGlar], the “Mean postdose C-peptide” value [1, 5] was 201 ± 74 pmol/L, the C-peptide reduction ([1]; group A (defined by C-peptide reduction <50%), N = 52) was 39.5 ± 6.7% and the “Mean postdose C-peptide” value [1, 6] was 134 ± 50 pmol/L. The C-peptide reduction ([1]; group B (defined by C-peptide reduction >=50%), N = 26) was 57.4 ± 5.5%, the “AUCGIR,0-24h” value [2, 5] was 2,415 ± 953 mg/kg and the GIRmax [2, 5] was 2.82 ± 1.06 mg/kg/min. The tGIRmax [2, 5] was 666 ± 202 min, the “AUCGIR,0-12h” value [2, 5] was 989 (642) mg/kg and the GIRmax after correction ([2]; group A) was 2.96 mg/kg/min. For the same substance, the “AUCGIR, 0–24 h after correction” value ([2]; group A) was 2,513 mg/kg, the “AUCGIR,0-24h” value [2, 6] was 2,891 ± 908 mg/kg and the GIRmax [2, 6] was 3.36 ± 1.07 mg/kg/min. For the same substance, the tGIRmax [2, 6] was 678 ± 180 min, the “AUCGIR,0-12h” value [2, 6] was 1,320 (615) mg/kg and the GIRmax after correction ([2]; group B) was 3.09 mg/kg/min. For the same substance, the “AUCGIR, 0–24 h after correction” value ([2]; group B) was 2,697 mg/kg, the Maximum total insulin [3, 5] was 151.8 ± 42.0 pmol/L and the “Time of maximum total insulin” value [3, 5] was 10.9 ± 5.55 h. For the same substance, the “AUCTotal insulin,0-12h” value [3, 5] was 1,444 ± 398, the “AUCTotal insulin,0-24h” value [3, 5] was 2,853 ± 713 and the Maximum total insulin [3, 6] was 162.1 ± 41.9 pmol/L. The “Time of maximum total insulin” value [3, 6] was 10.8 ± 3.77 h, the “AUCTotal insulin,0-12h” value [3, 6] was 1,510 ± 368 and the “AUCTotal insulin,0-24h” value [3, 6] was 2,958 ± 626. The tIGlarmax [4, 5] was 11.7 ± 3.97 h, the “AUCIGlar,0-12h” value [4, 5] was 1,099 ± 342 pmol/L×h and the “AUCIGlar,0-24h” value [4, 5] was 2,194 ± 597 pmol/L×h. For the same substance, the IGlarmax [4, 5] was 122.7 ± 37.7 pmol/L, the tIGlarmax [4, 6] was 11.6 ± 2.66 h and the “AUCIGlar,0-12h” value [4, 6] was 1,295 ± 360 pmol/L×h. The “AUCIGlar,0-24h” value [4, 6] was 2,534 ± 597 pmol/L×h and the IGlarmax [4, 6] was 147.7 ± 42.5 pmol/L.
